Reference: US20120283304A1, “Formulations of Temozolomide for Parenteral Administration” (SAHAJ LIFE SCIENCES PVT. LTD., priority 2009, published 2012)
Like-named read-outs stand apart in the source and are kept apart here.

Columns and labels:
[1] = Chemical parameters (assay and impurities) of the lyophilised formulations; format: physicochemical
Method: The formulations were analysed and the data is tabulated below: […]

[2] = cited from earlier work
[3] = cited from earlier work; remark: listed apart in the source

With Cn1nnc2c(C(N)=O)ncn2c1=O [Temozolomide, 3-methyl-8-carbamoyl-imidazo[5,1-d]-1,2,3,5-tetrazin-4(3H)-one] the “% Assay” value [1] was 100.3%, the “% Impurities AIC” value [1] was 0.02% and the “% Impurities Any other maximum impurity” value [1] was “Not detected”. For the same compound, the “% Impurities MTC-1” value [1] was “Not detected”, the “% Impurities Total impurities” value [1] was 0.04% and the Stability ([2]; acidic pH less than 5) was “stable”. The Stability ([2]; pH greater than 7) was “unstable” and the Solubility in water [3] was “only slightly soluble”.
